Source: ChEMBL document CHEMBL1201862, “PubChem BioAssay data set” (2004)
Calls of active or inactive are those of the source.

What was measured:
[1] = NIH-3T3 fibroblast cytotoxicity, dose response, cytotoxicity control, cell-based, fluorescence, Alamar Blue, secondary assay (AID 2327); assay type: functional;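 further: NIH-3T3 mouse fibroblasts cultured with fluconazole at 8 µg/mL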
[2] = C. albicans growth with fluconazole, confirmation, fluorescence, retest (AID 2467); assay type: functional, cell-based
[3] = molecular target: Heat shock protein HSP 90-alpha (Homo sapiens, UniProt P07900); assay type: functional, organism-based
INS1 = assay: beta cell apoptosis inhibitors, cytokine rescue, dose response, luminescence, retest (AID 449756); assay type: functional, cell-based; conditions: Rattus norvegicus;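 further: cell death triggered by IL-1 beta plus TNF-alpha plus IFN-gamma mixture; protective hits raise ATP signal compared with cytokine alone wells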
[4] = Shn3 3'UTR reporter inhibitors, dose response, cell-based, Clone20 osteoblasts, firefly luciferase, cherry-picked (AID 624132); assay type: functional;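 further: firefly luciferase luminescence from reporter carrying the Shn3 3'UTR in osteoblasts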
[5] = control 3'UTR Renilla luciferase suppression, dose response, counter-screen for Shn3 inhibitor project, cell-based, Clone20-Shn3RL, cherry-picked (AID 624133); assay type: functional
[6] = molecular target: Dual specificity protein kinase CLK2 (Homo sapiens, UniProt P49760); assay type: functional
[7] = molecular target: Dual specificity mitogen-activated protein kinase kinase 1 (Homo sapiens, UniProt Q02750); assay: Navigating the Kinome. Panel member name: MAP2K1; assay type: functional
[8] = molecular target: Tyrosine-protein kinase JAK2 (Homo sapiens, UniProt O60674); assay type: functional;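 further: JAK2 tested as one member of a kinase panel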
[9] = molecular target: Serine/threonine-protein kinase TBK1 (Homo sapiens, UniProt Q9UHD2); assay: Navigating the Kinome. Panel member name: TBK1; assay type: functional
[10] = molecular target: 5'-AMP-activated protein kinase catalytic subunit alpha-1 (Homo sapiens, UniProt Q13131); assay type: functional
[11] = molecular target: Tyrosine-protein kinase Lck (Homo sapiens, UniProt P06239); assay type: functional;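 further: lck was assayed as one member of a kinase panel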
[12] = molecular target: Death-associated protein kinase 3 (Homo sapiens, UniProt O43293); assay type: functional;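 further: measured as one member of a kinome-wide profiling panel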
[13] = molecular target: Mitogen-activated protein kinase 8 (Homo sapiens, UniProt P45983); assay type: functional;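 further: value comes from one member of a kinome-wide kinase profiling panel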
[14] = molecular target: Serine/threonine-protein kinase pim-1 (Homo sapiens, UniProt P11309); assay type: functional
[15] = molecular target: Serine/threonine-protein kinase PAK 4 (Homo sapiens, UniProt O96013); assay type: functional;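 further: value obtained within a kinome profiling panel in which PAK4 was one of the panel members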
[16] = molecular target: Fibroblast growth factor receptor 1 (Homo sapiens, UniProt P11362); assay type: functional
[17] = molecular target: Tyrosine-protein kinase JAK3 (Homo sapiens, UniProt P52333); assay type: functional
[18] = molecular target: Mitogen-activated protein kinase 9 (Homo sapiens, UniProt P45984); assay type: functional;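 further: value from a kinome panel profiling assay, MAPK9 panel entry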
LIM domain kinase 1 = LIM domain kinase 1 (Homo sapiens, UniProt P53667); assay: Navigating the Kinome. Panel member name: LIMK1; assay type: functional
[19] = molecular target: Serine/threonine-protein kinase TAO1 (Homo sapiens, UniProt Q7L7X3); assay type: functional
[20] = molecular target: High affinity nerve growth factor receptor (Homo sapiens, UniProt P04629); assay type: functional;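 further: NTRK1 tested as one member of a kinome-wide profiling panel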
Activated CDC42 kinase 1 = Activated CDC42 kinase 1 (Homo sapiens, UniProt Q07912); assay: Navigating the Kinome. Panel member name: ACK1; assay type: functional
[21] = molecular target: Receptor-type tyrosine-protein kinase FLT3 (Homo sapiens, UniProt P36888); assay type: functional;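 further: FLT3 was tested as one member of a kinome-wide kinase panel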
[22] = molecular target: Tyrosine-protein kinase ABL1 (Homo sapiens, UniProt P00519); assay type: functional
[23] = molecular target: Vascular endothelial growth factor receptor 2 (Homo sapiens, UniProt P35968); assay type: functional
[24] = molecular target: G protein-coupled receptor kinase 5 (Homo sapiens, UniProt P34947); assay: Navigating the Kinome. Panel member name: GPRK5; assay type: functional
[25] = molecular target: Cyclin-dependent kinase 5 (Homo sapiens, UniProt Q00535); assay type: functional;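 further: CDK5 measured as one member of a kinase profiling panel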
[26] = molecular target: Dual specificity tyrosine-phosphorylation-regulated kinase 1B (Homo sapiens, UniProt Q9Y463); assay: Navigating the Kinome. Panel member name: DYRK1B; assay type: functional
[27] = molecular target: Platelet-derived growth factor receptor alpha (Homo sapiens, UniProt P16234); assay: Navigating the Kinome. Panel member name: PDGFRA; assay type: functional
Aurora kinase B = Aurora kinase B (Homo sapiens, UniProt Q96GD4); assay type: functional
[28] = molecular target: Rho-associated protein kinase 1 (Homo sapiens, UniProt Q13464); assay type: functional;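 further: measured within a broad kinome-wide panel profiling many kinases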
[29] = molecular target: Tyrosine-protein kinase Fyn (Homo sapiens, UniProt P06241); assay type: functional
[30] = molecular target: T1, Serine/threonine-protein kinase Nek2 (Homo sapiens, UniProt P51955); assay type: functional
T1 sequence (P51955 whole entry): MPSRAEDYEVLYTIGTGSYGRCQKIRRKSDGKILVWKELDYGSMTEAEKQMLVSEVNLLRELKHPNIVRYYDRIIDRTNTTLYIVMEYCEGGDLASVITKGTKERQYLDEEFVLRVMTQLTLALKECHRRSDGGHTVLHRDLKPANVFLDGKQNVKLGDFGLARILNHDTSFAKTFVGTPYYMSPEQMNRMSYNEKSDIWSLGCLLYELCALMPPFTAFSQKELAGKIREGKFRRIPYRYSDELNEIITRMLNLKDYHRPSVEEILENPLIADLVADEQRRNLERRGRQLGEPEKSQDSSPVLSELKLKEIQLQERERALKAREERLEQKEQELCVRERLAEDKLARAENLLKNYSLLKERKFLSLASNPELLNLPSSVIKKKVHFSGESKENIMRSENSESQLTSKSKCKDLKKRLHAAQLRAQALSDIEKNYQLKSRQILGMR

[31] = molecular target: Cyclin-dependent kinase 7 (Homo sapiens, UniProt P50613); assay type: functional;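 further: value comes from a kinome-wide kinase profiling panel in which CDK7 is one member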
[32] = molecular target: Glycogen synthase kinase-3 beta (Homo sapiens, UniProt P49841); assay type: functional;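 further: value comes from a broad kinome profiling panel, with GSK3B as the panel member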
[33] = molecular target: BDNF/NT-3 growth factors receptor (Homo sapiens, UniProt Q16620); assay type: functional;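 further: NTRK2 measured as one member of a broad kinome-wide kinase profiling panel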
[34] = molecular target: Dual specificity protein kinase CLK4 (Homo sapiens, UniProt Q9HAZ1); assay type: functional
[35] = molecular target: Macrophage-stimulating protein receptor (Homo sapiens, UniProt Q04912); assay: Navigating the Kinome. Panel member name: MST1R; assay type: functional
[36] = molecular target: Dual specificity mitogen-activated protein kinase kinase 2 (Homo sapiens, UniProt P36507); assay: Navigating the Kinome. Panel member name: MAP2K2; assay type: functional
[37] = molecular target: Inhibitor of nuclear factor kappa-B kinase subunit epsilon (Homo sapiens, UniProt Q14164); assay: Navigating the Kinome. Panel member name: IKBKE; assay type: functional
[38] = molecular target: Leukocyte tyrosine kinase receptor (Homo sapiens, UniProt P29376); assay: Navigating the Kinome. Panel member name: LTK; assay type: functional

Cyclin-dependent kinase 7, sequence (P50613 whole entry): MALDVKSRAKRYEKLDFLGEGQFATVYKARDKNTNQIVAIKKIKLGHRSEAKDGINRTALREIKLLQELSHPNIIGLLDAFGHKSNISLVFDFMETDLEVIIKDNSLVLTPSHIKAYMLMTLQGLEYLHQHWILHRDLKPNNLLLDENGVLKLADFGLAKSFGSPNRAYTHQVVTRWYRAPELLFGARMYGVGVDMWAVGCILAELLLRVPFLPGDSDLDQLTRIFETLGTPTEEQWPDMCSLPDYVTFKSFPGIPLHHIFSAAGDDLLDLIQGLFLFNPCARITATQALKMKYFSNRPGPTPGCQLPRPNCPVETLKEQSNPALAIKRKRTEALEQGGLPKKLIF
Activated CDC42 kinase 1, sequence (Q07912 whole entry): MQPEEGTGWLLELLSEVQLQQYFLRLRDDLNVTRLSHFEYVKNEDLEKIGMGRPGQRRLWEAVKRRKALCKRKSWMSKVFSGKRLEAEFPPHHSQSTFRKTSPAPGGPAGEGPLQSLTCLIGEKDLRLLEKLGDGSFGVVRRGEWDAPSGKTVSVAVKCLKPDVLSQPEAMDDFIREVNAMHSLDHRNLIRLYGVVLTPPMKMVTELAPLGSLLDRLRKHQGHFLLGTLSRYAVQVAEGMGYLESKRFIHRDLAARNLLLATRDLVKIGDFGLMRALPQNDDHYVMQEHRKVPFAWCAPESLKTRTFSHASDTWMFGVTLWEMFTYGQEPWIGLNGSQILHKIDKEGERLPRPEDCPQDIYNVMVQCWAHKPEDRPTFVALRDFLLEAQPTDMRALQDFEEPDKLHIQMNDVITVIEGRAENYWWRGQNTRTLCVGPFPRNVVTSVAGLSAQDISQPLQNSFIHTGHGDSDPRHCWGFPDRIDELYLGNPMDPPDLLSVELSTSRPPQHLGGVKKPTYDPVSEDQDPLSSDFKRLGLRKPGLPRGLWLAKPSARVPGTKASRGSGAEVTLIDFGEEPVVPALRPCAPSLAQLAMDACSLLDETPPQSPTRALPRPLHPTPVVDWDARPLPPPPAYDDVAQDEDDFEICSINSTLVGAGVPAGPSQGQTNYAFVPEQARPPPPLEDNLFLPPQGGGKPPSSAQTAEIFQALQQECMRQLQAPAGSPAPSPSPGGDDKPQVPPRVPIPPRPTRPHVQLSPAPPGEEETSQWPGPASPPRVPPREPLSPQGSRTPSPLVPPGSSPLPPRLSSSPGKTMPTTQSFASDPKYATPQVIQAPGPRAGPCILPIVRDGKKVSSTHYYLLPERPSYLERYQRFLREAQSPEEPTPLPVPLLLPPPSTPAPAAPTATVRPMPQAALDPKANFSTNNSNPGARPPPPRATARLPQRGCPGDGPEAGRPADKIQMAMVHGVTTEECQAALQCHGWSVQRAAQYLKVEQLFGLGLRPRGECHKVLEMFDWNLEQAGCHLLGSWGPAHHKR
Serine/threonine-protein kinase TAO1, sequence (Q7L7X3 whole entry): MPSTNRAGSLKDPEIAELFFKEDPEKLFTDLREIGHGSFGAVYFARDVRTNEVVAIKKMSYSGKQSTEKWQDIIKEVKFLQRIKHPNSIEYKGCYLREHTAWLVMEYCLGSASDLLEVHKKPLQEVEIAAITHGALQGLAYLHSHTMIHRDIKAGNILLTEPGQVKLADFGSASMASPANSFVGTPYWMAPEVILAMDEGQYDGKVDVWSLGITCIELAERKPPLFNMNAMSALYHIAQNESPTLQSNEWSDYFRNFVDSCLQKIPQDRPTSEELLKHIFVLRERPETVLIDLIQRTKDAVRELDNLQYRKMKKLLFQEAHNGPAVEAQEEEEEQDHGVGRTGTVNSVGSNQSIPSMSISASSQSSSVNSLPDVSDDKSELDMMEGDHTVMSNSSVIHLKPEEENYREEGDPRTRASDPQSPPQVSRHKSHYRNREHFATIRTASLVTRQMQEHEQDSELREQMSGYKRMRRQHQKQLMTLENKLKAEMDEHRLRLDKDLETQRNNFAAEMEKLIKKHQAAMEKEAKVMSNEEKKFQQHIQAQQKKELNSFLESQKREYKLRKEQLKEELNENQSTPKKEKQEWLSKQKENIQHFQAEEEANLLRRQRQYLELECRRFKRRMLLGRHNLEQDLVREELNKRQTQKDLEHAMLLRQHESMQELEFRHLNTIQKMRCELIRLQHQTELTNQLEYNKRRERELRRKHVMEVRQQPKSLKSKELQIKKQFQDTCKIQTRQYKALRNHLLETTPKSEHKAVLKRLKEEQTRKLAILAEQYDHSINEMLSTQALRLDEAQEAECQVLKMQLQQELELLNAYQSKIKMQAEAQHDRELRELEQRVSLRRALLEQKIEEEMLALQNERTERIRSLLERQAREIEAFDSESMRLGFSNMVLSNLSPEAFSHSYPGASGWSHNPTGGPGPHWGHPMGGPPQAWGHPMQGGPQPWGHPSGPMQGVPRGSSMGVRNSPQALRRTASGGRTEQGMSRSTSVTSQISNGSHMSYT
Death-associated protein kinase 3, sequence (O43293 whole entry): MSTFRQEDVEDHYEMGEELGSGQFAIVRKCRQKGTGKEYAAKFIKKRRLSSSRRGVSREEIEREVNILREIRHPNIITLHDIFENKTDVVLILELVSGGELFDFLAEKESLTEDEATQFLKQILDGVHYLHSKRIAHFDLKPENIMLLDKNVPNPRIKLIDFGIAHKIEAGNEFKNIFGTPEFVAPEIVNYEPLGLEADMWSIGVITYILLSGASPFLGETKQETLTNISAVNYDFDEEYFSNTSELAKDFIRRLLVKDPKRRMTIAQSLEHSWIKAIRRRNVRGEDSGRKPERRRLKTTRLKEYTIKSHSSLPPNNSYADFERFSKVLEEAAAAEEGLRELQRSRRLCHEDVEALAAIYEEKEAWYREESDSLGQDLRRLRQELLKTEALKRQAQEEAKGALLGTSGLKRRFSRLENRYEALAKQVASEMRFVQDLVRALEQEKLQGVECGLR
Inhibitor of nuclear factor kappa-B kinase subunit epsilon, sequence (Q14164 whole entry): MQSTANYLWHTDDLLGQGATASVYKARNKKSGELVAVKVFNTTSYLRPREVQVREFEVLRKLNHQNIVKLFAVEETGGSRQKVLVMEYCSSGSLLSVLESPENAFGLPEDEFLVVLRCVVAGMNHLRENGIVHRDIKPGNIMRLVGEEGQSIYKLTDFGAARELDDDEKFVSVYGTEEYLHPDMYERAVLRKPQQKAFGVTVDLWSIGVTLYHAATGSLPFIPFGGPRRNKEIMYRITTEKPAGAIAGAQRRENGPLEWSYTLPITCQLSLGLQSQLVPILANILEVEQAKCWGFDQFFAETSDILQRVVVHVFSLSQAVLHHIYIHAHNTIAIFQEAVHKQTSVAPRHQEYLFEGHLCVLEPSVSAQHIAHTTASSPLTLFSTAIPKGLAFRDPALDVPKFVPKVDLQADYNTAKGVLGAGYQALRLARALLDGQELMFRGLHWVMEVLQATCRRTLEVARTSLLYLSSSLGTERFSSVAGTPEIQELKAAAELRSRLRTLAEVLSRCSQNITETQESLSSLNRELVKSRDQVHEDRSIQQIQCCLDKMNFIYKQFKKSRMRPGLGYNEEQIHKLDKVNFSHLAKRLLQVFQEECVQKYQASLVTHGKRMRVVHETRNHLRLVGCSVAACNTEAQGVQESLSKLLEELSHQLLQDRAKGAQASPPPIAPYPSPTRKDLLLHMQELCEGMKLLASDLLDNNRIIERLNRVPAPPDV
Platelet-derived growth factor receptor alpha, sequence (P16234 whole entry): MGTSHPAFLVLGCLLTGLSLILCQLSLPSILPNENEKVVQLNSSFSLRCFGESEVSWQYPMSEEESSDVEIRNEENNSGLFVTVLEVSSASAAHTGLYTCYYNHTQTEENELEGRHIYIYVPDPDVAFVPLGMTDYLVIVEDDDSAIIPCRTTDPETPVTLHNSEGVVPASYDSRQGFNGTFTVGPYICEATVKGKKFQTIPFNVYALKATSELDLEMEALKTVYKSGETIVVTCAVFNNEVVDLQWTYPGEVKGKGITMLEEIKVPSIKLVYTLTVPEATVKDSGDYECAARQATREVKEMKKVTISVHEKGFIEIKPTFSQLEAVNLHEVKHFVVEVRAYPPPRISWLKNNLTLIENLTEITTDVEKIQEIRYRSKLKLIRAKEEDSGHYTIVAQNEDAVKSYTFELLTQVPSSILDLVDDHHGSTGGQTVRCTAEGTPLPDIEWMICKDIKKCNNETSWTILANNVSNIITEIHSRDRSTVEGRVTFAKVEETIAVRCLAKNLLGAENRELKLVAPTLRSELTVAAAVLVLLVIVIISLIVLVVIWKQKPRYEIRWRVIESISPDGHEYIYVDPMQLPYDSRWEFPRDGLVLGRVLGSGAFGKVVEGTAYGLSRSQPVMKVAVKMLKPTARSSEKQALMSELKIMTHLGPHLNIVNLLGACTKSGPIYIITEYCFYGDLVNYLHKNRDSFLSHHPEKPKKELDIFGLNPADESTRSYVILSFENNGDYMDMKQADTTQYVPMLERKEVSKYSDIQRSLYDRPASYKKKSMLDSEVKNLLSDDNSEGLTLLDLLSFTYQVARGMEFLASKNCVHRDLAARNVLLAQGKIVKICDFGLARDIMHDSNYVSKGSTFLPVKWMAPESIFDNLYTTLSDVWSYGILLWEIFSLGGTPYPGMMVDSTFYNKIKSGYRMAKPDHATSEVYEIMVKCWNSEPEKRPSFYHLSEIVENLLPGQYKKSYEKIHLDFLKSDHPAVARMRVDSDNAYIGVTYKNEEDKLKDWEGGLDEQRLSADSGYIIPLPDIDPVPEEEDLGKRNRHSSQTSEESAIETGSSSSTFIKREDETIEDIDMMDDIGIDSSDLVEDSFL
Aurora kinase B, sequence (Q96GD4 whole entry): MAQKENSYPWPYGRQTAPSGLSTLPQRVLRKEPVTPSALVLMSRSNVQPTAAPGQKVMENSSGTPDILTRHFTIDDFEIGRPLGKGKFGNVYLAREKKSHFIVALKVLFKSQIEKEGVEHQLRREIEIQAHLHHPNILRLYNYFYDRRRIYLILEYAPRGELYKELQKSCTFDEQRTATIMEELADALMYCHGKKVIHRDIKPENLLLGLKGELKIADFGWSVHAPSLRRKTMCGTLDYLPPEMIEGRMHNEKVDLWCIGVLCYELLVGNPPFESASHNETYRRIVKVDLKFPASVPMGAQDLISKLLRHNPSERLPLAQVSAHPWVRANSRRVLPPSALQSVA

Cc1ccc(C(=O)OCn2ncc(Cl)c(Cl)c2=O)cc1
EC50 [1]: 3070 nM (inconclusive) | EC50 [2]: > 38000 nM (not active) | AC50 [3]: 4280 nM (active) | AC50 (INS1): 5510 nM (active) | AC50 [4]: 5070 nM (active) | AC50 [5]: 3150 nM (active)

O=C(Nc1cccc(C2Nc3ccc4ccccc4c3C3C=CCC32)c1)c1ccc(F)cc1 (centres undefined)
Ki [6]: > 3980 nM (inactive) | Ki [7]: 1000 nM (active) | Ki [8]: > 2510 nM (inactive) | Ki [9]: 3160 nM (active) | Ki [10]: 3160 nM (active) | Ki [11]: > 6310 nM (inactive) | Ki [12]: > 5010 nM (inactive) | Ki [13]: 3160 nM (active) | Ki [14]: 316 nM (active) | Ki [15]: > 5010 nM (inactive) | Ki [16]: 794 nM (active) | Ki [17]: > 5010 nM (inactive) | Ki [18]: > 3980 nM (inactive) | Ki (LIM domain kinase 1): 200 nM (active) | Ki [19]: > 6310 nM (inactive) | Ki [20]: 794 nM (active) | Ki (Activated CDC42 kinase 1): > 3980 nM (inactive) | Ki [21]: > 3160 nM (inactive) | Ki [22]: 1260 nM (active) | Ki [23]: > 2510 nM (inactive) | Ki [24]: 1260 nM (active) | Ki [25]: > 3160 nM (inactive) | Ki [26]: > 2510 nM (inactive) | Ki [27]: > 2510 nM (inactive) | Ki (Aurora kinase B): 1000 nM (active) | Ki [28]: > 3980 nM (inactive) | Ki [29]: > 6310 nM (inactive) | Ki [30]: 1580 nM (active) | Ki [31]: 1260 nM (active) | Ki [32]: 398 nM (active) | Ki [33]: > 3980 nM (inactive) | Ki [34]: 1000 nM (active) | Ki [35]: > 3980 nM (inactive) | Ki [36]: 398 nM (active) | Ki [37]: > 3160 nM (inactive) | Ki [38]: > 2510 nM (inactive)

Cc1ccc(-c2cc(-c3cc(Br)ccc3O)[nH]c(=O)c2C#N)s1
Ki [6]: > 3980 nM (inactive) | Ki [7]: > 3160 nM (inactive) | Ki [8]: 794 nM (active) | Ki [9]: > 3160 nM (inactive) | Ki [10]: 794 nM (active) | Ki [11]: > 6310 nM (inactive) | Ki [12]: > 5010 nM (inactive) | Ki [13]: 794 nM (active) | Ki [14]: 1000 nM (active) | Ki [15]: 2000 nM (active) | Ki [16]: 1000 nM (active) | Ki [17]: > 5010 nM (inactive) | Ki [18]: > 3980 nM (inactive) | Ki (LIM domain kinase 1): > 3160 nM (inactive) | Ki [19]: > 6310 nM (inactive) | Ki [20]: 631 nM (active) | Ki (Activated CDC42 kinase 1): 2510 nM (active) | Ki [21]: 631 nM (active) | Ki [22]: > 2510 nM (inactive) | Ki [23]: 631 nM (active) | Ki [24]: 1000 nM (active) | Ki [25]: > 3160 nM (inactive) | Ki [26]: 794 nM (active) | Ki [27]: > 2510 nM (inactive) | Ki (Aurora kinase B): 794 nM (active) | Ki [28]: 1000 nM (active) | Ki [29]: 3160 nM (active) | Ki [30]: > 3160 nM (inactive) | Ki [31]: > 3980 nM (inactive) | Ki [32]: 316 nM (active) | Ki [33]: 3160 nM (active) | Ki [34]: > 2510 nM (inactive) | Ki [35]: 794 nM (active) | Ki [36]: 1580 nM (active) | Ki [37]: > 3160 nM (inactive) | Ki [38]: > 2510 nM (inactive)

CCCC(=O)NC(c1cccs1)c1cc(Cl)c2cccnc2c1O (centres undefined)
EC50 [1]: > 150000 nM (inactive) | EC50 [2]: 707 nM (active) | AC50 [3]: 1470 nM (active) | AC50 (INS1): 1420 nM (active) | AC50 [4]: 3160 nM (active) | AC50 [5]: 4360 nM (active)
